Activity calls are given as the source filed them. Cut-off read from the data, not from the text of the source, for most assays here: actives have a measured EC50 and inactives only a lower limit.

6 compounds from ChEMBL document CHEMBL1201862, “PubChem BioAssay data set” (2004) can be followed below.

Test [1] addresses Luciferin 4-monooxygenase (Photinus pyralis, UniProt P08659). The test can be described thus: firefly luciferase enzyme inhibitors, dose response, biochemical, luminescence (AID 1891).
The nature of test [2]: Luminescence Cell-Based Dose Confirmation HTS to Identify Inhibitors of Platelet Dense Granule Release. [Related pubchem assays: 1663 (Primary HTS), 1678 (Summary of Project)]. In kind it is functional.
Test [3] is described as follows: cytotoxicity toward DRD oncogenic fibroblasts, dose response, cell-based, non-viral oncogenic, luminescence (AID 1934). As to conditions: Homo sapiens. Type of test: functional.
Test [4] concerns BJ. The test can be described thus: cytotoxicity toward Ras-transformed BJeLR fibroblasts, dose response, cell-based, alamar blue fluorescence, cherrypicked samples (AID 2631).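 Note: confirmatory dose-response assay in RAS-dependent BJ fibroblasts engineered with TERT, LT and ST, with cytotoxicity read by fluorescence.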 In kind it is functional. As to conditions: Homo sapiens. Background: Alamar Blue is a resazurin reagent that responds to reducing activity.
For test [5], the system named is BJ. The test can be described thus: cytotoxicity toward BJ-TERT-LT-ST fibroblasts, dose response, cell-based, RAS-independent, luminescence (AID 1935).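 Note: BJ fibroblasts immortalized with TERT plus LT and ST oncogenes.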 Type of test: functional. As to conditions: Homo sapiens.
The test system of test [6] is BJ. Briefly: cells. In kind it is functional, cell-based. As to conditions: Homo sapiens.
Test [7] deals with BJ. Briefly: cytotoxicity toward BJ-TERT fibroblasts, dose response, cell-based, RAS-independent, luminescence (AID 1933). Type of test: functional. As to conditions: Homo sapiens.
Test [8] concerns the target Beta-2 adrenergic receptor (Homo sapiens, UniProt P07550). Briefly: beta2AR agonists driving receptor internalization, dose response, cell-based, FAP fluorogen, flow cytometry, cherry pick 1 (AID 588763). Type of test: functional. In general terms: Flow cytometry measures light scatter and fluorescence of single cells or particles in a stream.
For test [9], the target named is Phospholipase D2 (Homo sapiens, UniProt O14939). Briefly: PLD2 inhibitor potency in cells, dose response (AID 602147).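 Note: cellular assay in HEK293 cells overexpressing GFP-tagged PLD2.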 In kind it is functional.
Phospholipase D2, sequence (O14939 whole entry): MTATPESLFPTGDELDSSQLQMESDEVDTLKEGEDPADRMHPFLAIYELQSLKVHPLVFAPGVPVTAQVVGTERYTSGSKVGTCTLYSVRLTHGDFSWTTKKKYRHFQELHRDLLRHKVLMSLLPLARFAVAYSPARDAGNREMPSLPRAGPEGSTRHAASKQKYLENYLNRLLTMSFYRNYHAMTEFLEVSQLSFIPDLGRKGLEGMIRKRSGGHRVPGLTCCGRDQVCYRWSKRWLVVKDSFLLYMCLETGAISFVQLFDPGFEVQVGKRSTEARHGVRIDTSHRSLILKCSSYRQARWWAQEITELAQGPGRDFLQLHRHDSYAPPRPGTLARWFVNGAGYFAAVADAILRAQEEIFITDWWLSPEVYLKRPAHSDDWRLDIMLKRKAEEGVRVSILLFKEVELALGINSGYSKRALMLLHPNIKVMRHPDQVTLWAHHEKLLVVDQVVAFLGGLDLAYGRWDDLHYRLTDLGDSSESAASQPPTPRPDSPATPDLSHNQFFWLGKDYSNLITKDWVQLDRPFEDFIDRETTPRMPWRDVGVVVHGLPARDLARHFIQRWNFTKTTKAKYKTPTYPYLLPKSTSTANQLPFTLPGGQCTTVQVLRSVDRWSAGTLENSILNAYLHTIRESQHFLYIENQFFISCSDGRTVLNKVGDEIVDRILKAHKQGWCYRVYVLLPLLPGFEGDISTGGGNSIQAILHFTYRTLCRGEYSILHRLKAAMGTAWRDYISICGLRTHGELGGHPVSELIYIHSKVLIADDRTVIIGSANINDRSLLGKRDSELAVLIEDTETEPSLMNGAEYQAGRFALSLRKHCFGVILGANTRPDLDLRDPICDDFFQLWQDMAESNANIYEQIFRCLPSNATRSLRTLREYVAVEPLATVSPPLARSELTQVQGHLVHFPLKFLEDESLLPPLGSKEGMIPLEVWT
In test [10] the target is Phospholipase D1 (Homo sapiens, UniProt Q13393). Briefly: PLD1 inhibitor potency in cells, dose response (AID 602151).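 Note: cellular PLD1 assay in Calu-1 cells stimulated with PMA.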 In kind it is functional.
Phospholipase D1, sequence (Q13393 whole entry): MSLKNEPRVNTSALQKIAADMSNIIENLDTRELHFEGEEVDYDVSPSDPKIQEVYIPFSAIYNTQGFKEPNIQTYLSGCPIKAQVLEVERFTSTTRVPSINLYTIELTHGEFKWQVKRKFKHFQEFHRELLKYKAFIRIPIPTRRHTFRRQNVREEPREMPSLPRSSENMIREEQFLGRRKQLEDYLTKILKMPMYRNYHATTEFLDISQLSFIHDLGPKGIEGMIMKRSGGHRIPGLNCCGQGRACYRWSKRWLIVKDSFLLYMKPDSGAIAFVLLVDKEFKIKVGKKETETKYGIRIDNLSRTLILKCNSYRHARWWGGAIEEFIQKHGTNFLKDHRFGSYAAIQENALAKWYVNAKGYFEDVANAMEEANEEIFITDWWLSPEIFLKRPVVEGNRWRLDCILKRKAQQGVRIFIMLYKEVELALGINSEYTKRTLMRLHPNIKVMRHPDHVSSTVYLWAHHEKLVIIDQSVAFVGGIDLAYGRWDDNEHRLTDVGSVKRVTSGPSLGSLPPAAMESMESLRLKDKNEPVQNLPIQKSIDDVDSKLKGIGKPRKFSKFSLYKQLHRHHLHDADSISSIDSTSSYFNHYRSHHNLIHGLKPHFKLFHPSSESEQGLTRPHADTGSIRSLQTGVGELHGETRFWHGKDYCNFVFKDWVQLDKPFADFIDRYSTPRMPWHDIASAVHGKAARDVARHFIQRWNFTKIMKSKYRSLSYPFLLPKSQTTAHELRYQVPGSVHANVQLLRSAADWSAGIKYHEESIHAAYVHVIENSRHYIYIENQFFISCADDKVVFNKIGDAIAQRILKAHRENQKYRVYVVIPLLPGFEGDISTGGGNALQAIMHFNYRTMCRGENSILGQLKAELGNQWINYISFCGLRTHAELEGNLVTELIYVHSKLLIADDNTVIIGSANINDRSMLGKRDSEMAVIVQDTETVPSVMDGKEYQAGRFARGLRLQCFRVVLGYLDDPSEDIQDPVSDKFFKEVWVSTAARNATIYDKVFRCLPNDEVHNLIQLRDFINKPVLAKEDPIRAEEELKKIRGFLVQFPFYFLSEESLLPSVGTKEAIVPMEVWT
The nature of test [11]: nonselective inhibitors of cellular cAMP signaling, dose response, counter-screen for MC4R biased antagonist project, cell-based, TR-FRET cAMP detection (AID 602305).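 Note: U2OS cells stimulated with forskolin near its EC80 as the cAMP inducer; potency is for inhibition of forskolin-stimulated cAMP signaling.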 In kind it is functional. (The purpose of a counterscreen is to sort out artefacts and off-target activity.)
Test [12] has as its target Melanocortin receptor 4 (Homo sapiens, UniProt P32245). Briefly: MC4R antagonist potency on cAMP, dose response, cell-based, TR-FRET, biased antagonists (AID 602298).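 Note: antagonist potency against agonist-stimulated cAMP production.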 In kind it is functional.

Melanocortin receptor 4, sequence (P32245 whole entry): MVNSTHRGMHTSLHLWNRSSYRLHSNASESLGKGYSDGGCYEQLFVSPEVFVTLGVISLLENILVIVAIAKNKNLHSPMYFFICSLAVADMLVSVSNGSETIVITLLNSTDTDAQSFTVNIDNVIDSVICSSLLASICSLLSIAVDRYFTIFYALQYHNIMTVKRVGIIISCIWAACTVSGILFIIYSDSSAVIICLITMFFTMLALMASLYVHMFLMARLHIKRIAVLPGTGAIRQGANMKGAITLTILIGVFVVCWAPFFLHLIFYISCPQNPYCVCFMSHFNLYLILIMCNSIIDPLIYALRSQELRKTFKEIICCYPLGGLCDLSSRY
Luciferin 4-monooxygenase, sequence (P08659 whole entry): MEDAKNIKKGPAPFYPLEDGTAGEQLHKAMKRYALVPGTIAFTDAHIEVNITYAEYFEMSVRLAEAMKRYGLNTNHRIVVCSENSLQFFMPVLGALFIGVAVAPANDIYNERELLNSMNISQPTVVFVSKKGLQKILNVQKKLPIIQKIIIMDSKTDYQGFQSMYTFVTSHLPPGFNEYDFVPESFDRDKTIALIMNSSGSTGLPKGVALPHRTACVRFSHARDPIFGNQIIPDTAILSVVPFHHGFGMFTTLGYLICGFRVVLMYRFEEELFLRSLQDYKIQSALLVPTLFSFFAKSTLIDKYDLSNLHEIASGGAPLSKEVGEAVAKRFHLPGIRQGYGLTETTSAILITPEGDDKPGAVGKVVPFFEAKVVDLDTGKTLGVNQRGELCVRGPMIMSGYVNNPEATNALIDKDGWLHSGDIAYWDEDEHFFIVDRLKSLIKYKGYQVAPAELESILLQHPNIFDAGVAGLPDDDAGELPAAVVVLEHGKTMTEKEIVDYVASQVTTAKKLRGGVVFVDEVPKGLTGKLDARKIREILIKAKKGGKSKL
Beta-2 adrenergic receptor, sequence (P07550 whole entry): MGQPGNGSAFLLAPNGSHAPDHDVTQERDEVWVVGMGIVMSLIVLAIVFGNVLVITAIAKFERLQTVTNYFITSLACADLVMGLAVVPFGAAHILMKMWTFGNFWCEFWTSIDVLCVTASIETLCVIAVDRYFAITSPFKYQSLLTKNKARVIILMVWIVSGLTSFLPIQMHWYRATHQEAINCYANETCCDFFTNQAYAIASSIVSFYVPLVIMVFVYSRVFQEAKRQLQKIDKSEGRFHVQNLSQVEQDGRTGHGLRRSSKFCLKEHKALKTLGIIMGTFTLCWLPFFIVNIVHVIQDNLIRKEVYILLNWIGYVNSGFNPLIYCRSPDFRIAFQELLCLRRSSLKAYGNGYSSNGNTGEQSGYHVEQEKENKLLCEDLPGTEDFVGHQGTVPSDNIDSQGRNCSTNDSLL

On to `COc1cccc(C(=O)Nc2ccc(N3CCCC3)cc2)c1`, for which the EC50 is 0.856 µM (active) in [1]; 1.2 µM (active) in test [2]; 4.29 µM (active) in test [3]; 86.1 µM (active) in [4]; 13.8 µM (active) in test [5]; 3.26 µM (active) in [6]. Besides, in test [7], the concentration giving a half-maximal response (EC50) is 9.4 µM (active).

In the case of `C=C1C(=O)O[C@@H]2C[C@@H](C)[C@H]3C=CC(=O)[C@]3(O)C[C@@H]12`, in test [4], the concentration giving a half-maximal response (EC50) was 3.09 µM (active).

On to `CC1(C)Cc2c(c(N3CCOCC3)nc3sc4c(NCCN)ncnc4c23)CO1`, for which the half-maximal effective concentration (EC50) in test [8] is 0.158 µM (active).

`CC(C)[C@@H](CN1CCC(n2c(=O)[nH]c3ccccc32)CC1)NC(=O)c1ccc2ccccc2c1`: the half-maximal inhibitory concentration (IC50) is 20 µM (active) in test [9] and 5.6 µM (active) in test [10].

Turning to `CSCCC(NC(=O)c1cccc(C)c1)C(=O)OCN1C(=O)c2ccccc2C1=O` (stereo not given), the results for the IC50 in test [11] and in test [12] were > 64.6 µM (inactive) and > 21.5 µM (inactive), respectively.

With `Cc1ccc(C(=O)N[C@@H](C)CN2CCC(n3c(=O)[nH]c4ccc(F)cc43)CC2)cc1`, the results for the IC50 in test [9] and in test [10] were 0.18 µM (active) and 0.008 µM (active), respectively.

A word on the EC50: it is the midpoint of the concentration-response curve. One may read the IC50 as the concentration that inhibits the measured activity by half.
